According to ChEMBL document CHEMBL1201862, “PubChem BioAssay data set” (2004):
Counter-ions that a name gives are not always drawn. Activity calls are given as the source filed them.

Legend:
[1] = target: T1, Replicative DNA helicase DnaB (Mycobacterium tuberculosis, UniProt P9WMR3); test: DnaB intein splicing inhibitors, dose response, biochemical, cell-free fluorescence (AID 449749); format: functional
T1 sequence (P9WMR3 whole entry): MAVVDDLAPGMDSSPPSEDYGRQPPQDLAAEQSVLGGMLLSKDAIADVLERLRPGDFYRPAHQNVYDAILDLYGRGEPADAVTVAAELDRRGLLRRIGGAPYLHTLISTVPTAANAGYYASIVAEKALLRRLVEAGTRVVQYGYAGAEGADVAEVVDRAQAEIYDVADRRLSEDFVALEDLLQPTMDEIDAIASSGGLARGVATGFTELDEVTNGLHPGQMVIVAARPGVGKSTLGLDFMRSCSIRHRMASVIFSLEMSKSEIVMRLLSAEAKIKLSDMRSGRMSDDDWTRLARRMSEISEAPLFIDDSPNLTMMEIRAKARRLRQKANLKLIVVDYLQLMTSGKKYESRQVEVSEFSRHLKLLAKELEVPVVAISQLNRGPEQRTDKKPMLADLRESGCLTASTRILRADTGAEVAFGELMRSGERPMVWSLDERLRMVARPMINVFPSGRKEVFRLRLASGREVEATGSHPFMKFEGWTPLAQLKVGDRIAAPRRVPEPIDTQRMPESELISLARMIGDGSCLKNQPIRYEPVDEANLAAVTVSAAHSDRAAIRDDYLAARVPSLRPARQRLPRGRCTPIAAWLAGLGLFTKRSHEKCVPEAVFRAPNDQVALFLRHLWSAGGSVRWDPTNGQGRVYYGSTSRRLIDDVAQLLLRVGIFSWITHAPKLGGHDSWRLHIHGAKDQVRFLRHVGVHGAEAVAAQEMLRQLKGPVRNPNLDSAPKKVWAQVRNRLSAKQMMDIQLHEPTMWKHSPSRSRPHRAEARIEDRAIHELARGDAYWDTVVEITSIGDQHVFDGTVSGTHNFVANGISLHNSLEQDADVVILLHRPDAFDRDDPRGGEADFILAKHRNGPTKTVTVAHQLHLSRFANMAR

Aminopeptidase N = target: T2, Aminopeptidase N (Plasmodium falciparum FcB1/Columbia, UniProt O96935); test: malaria alanyl aminopeptidase activity blockers – biochemical, fluorogenic H-Leu-NHMec substrate, 1536-well (AID 1445); set-up: species or system Plasmodium falciparum 3D7, 3D7
T2 sequence (O96935 whole entry): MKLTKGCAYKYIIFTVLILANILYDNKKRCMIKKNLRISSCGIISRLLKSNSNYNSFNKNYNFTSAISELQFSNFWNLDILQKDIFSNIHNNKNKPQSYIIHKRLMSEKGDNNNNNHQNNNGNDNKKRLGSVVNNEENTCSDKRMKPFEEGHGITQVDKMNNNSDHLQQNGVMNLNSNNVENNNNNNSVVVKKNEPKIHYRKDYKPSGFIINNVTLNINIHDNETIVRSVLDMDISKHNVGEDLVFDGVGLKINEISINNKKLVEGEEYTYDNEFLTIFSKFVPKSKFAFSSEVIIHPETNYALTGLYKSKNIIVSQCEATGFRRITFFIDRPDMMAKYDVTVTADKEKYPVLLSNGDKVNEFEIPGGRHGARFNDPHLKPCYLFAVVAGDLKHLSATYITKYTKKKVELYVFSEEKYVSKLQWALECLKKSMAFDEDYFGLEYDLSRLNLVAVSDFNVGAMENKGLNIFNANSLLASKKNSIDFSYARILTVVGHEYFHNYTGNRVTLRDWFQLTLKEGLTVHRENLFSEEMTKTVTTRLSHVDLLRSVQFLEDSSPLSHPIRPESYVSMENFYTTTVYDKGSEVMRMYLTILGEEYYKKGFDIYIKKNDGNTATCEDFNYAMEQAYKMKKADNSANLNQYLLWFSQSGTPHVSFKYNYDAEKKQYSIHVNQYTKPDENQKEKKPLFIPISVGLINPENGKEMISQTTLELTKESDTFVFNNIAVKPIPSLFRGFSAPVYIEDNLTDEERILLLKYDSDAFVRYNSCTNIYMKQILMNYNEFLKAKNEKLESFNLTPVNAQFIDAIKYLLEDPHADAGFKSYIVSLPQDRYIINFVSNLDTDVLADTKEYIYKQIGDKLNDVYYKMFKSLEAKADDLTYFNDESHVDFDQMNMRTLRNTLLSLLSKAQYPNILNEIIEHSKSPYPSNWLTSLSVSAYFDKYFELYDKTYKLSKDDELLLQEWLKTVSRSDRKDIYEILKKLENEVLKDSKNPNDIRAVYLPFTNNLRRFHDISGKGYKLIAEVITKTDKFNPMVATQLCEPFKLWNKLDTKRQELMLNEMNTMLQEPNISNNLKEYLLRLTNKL

Protein RecA = target: T3, Protein RecA (Mycobacterium tuberculosis, UniProt P9WHJ3); test: Fluorescence Cell-Free Homogeneous Dose Retest to Identify Inhibitors of RecA-Intein Splicing Activity. [Related pubchem assays (depositor defined):AID2097, AID2223, AID489010, AID492950]; format: functional
T3 sequence (P9WHJ3 whole entry): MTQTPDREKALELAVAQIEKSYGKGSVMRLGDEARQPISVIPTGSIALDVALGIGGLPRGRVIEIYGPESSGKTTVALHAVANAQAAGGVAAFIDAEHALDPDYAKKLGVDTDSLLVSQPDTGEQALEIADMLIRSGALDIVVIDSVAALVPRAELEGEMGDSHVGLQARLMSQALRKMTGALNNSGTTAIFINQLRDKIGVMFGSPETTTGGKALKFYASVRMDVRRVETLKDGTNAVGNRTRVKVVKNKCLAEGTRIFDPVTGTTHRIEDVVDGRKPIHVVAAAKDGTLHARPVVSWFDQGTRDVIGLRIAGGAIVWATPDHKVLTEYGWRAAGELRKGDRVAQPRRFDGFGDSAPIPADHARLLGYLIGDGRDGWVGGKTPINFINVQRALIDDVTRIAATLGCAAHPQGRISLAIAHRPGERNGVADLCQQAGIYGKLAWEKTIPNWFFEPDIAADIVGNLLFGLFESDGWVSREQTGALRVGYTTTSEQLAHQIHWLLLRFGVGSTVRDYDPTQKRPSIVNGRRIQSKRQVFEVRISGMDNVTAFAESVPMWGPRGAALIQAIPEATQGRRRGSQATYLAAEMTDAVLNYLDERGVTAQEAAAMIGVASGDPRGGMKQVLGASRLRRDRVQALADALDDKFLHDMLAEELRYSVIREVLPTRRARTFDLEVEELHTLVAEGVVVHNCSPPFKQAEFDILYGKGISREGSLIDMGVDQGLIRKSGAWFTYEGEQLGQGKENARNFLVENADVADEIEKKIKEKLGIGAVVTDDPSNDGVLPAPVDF

[2] = bead-based luminescence quenchers, dual-tagged ARNT – biochemical, AlphaScreen, cherry-pick, artefact control for ARNT-TACC3 interaction inhibitor project, dose response (AID 651705); format: functional;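 also: AlphaScreen bead proximity signal that flags compounds interfering with the detection technology; potency reflects signal decrease which marks the compound as an assay artifact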
[3] = blockers of CRF-binding protein–CRF-R2 complex – cell-based, uHTS hits, 384-well, dose response (AID 651639); format: functional, Homo sapiens; settings: read-out: IC50_Mean
[4] = target: T4, Corticotropin-releasing factor receptor 2/Corticotropin-releasing factor-binding protein (Homo sapiens, UniProt P24387+Q13324); test: Dose Response confirmation of uHTS hits for small molecule antagonists of the CRF-binding protein and CRF-R2 receptor complex.; format: functional; settings: read-out: IC50_Mean
T4 sequence (Q13324 whole entry): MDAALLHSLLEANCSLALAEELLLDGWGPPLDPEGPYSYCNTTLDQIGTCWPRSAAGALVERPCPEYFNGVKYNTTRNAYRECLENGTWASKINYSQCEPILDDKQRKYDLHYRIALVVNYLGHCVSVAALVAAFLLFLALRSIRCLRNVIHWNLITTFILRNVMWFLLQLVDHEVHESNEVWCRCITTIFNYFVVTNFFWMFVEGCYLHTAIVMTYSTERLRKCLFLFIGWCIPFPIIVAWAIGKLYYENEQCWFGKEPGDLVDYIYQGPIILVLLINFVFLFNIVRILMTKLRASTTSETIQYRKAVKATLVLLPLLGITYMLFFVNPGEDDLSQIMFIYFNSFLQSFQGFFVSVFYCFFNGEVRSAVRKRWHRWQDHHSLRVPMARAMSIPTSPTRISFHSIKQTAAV
T4 sequence (P24387 whole entry): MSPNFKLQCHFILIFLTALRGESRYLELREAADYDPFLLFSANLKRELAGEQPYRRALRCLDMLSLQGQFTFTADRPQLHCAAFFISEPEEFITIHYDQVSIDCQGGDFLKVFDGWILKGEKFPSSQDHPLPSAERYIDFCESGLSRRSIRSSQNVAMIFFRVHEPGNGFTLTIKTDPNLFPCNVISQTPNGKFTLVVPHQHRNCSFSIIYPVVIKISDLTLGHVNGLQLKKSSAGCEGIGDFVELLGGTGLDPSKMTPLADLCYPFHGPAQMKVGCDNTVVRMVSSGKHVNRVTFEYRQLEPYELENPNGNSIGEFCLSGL

[5] = target: T4, Corticotropin-releasing factor receptor 2/Corticotropin-releasing factor-binding protein; test: activators of CRF receptor 2 with binding protein – uHTS hits, confirmation (AID 602473); format: functional; settings: read-out: EC50_Mean
Protein skinhead-1 = target: T5, Protein skinhead-1 (Caenorhabditis elegans, UniProt P34707); format: functional
T5 sequence (P34707 whole entry): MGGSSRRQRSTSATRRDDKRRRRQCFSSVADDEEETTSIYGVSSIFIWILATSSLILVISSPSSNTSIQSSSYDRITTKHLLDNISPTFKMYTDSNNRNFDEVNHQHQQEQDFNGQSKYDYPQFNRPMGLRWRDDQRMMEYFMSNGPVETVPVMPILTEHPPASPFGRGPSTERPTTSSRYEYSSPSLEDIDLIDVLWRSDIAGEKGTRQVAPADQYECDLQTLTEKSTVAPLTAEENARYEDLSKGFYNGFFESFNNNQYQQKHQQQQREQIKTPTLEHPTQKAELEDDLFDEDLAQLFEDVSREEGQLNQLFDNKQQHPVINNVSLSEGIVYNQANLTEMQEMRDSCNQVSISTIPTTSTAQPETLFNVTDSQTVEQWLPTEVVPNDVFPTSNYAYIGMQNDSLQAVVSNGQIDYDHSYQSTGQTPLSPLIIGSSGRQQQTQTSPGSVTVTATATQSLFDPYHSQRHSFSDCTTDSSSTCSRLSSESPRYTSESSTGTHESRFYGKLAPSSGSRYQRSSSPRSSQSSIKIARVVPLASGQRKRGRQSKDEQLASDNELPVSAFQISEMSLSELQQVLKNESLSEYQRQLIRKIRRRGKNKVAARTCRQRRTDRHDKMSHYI

cells = format: functional
[6] = Luminescence Cell-Based Dose Retest to Confirm Inhibitors of Cancer Stem Cells. [Related pubchem assays (depositor defined):AID2717, AID2721]; format: functional; settings: Homo sapiens
[7] = target: T6, Hepatocyte nuclear factor 4-alpha (Homo sapiens, UniProt P41235); format: functional, cell-based;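 also: biochemical luminescence-based dose-response counterscreen measuring inhibition of HNF4 dimerization, run alongside a screen for blockers of ABHD5–perilipin-5 interaction; split luciferase complementation of HNF4 fusion proteins in cell lysate measuring dimerization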
T6 sequence (P41235 whole entry): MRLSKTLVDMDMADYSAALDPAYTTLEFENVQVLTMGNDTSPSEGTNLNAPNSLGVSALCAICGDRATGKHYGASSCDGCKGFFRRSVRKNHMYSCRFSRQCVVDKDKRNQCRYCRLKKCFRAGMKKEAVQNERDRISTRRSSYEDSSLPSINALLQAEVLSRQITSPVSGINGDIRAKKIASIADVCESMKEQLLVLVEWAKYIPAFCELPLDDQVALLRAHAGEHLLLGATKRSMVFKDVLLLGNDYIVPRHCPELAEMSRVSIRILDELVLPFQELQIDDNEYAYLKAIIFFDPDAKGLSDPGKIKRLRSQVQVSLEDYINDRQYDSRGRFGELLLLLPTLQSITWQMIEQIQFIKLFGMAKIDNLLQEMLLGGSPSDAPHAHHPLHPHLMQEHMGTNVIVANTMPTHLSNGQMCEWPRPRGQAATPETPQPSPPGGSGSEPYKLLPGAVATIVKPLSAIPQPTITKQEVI

INS1 = test: INS-1E survival protection against cytokine death – cell-based, luminescence, retest, dose response (AID 449756); format: functional; settings: Rattus norvegicus;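 also: cell death triggered by IL-1 beta plus TNF-alpha plus IFN-gamma mixture; protective hits raise ATP signal compared with cytokine alone wells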
[8] = viability of PTEN-deleted HCT116 cells – cell-based, HCT116 PTEN knockout, dose response (AID 1047); format: functional;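 also: HCT116 colon tumor cells with PTEN knocked out; cells exposed to compound for 60 hours before readout; potency for loss of cell viability measured by luminescence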
[9] = viability of HCT116 lacking mutant beta-catenin – cell-based, human colon tumor, dose response (AID 1045); format: functional;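 also: HCT116 colon tumor cells with beta catenin knocked out; cells exposed to compound for 60 hours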
[10] = target: Heat shock protein HSP 90-alpha (Homo sapiens, UniProt P07900); format: functional, organism-based
[11] = NIH3T3 cell viability loss – ATP luminescence, mouse fibroblasts, counter-screen, dose response (AID 2010); format: functional, cell-based;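 also: cells exposed to compound for about 90 hours before reading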
[12] = tested on: Streptococcus sp. 'group A'; test: Streptococcus pyogenes SK(-)GAS viability under kanamycin – luminescence, BacTiterGlo, confirmation, counter-screen for streptokinase expression inhibitor project, dose response (AID 1900); format: functional, organism-based
[13] = Trypanosoma cruzi growth suppression in host cells – NIH3T3 host cells, beta-gal luminescence, confirmation (AID 2044); format: functional, cell-based;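 also: intracellular parasites grown in NIH/3T3 mouse fibroblasts as host cells; luminescent beta-galactosidase reporter signal from transgenic T. cruzi replicating inside host cells; inhibitors lower the luminescence signal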
Streptococcus = test: GAS UMAA2166 growth inhibition – luminescence, BacTiterGlo, counter-screen for streptokinase expression inhibitor project, dose response (AID 1915); format: functional, organism-based;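 also: potency for reduction of bacterial viability or growth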

## O=C1NC(=O)C(=NNc2cc([N+](=O)[O-])ccc2O)C(=O)N1
[1]
  AC50: 4.84 µM (active)
Aminopeptidase N
  IC50: 11.4 µM (active)
Protein RecA
  EC50: 3.79 µM (active)
[2]
  AC50: 111 µM (active)

## CC(=O)NC(Cc1ccc(C(C)C)cc1)C(=O)NC1CCN(C(=O)c2cccc(C)c2)CC1 (stereo unspecified)
[3]
  IC50: 10.8 µM (active)
[4]
  IC50: 24.4 µM (active)
[5]
  EC50: > 53 µM (inactive)

## Cc1cc(C)n(-c2ccc(C(=O)Oc3ccc4c(c3)OCO4)cc2)n1
[3]
  IC50: > 20 µM (inactive)
Protein skinhead-1
  IC50: > 100 µM (inactive)
cells
  IC50: 6.28 µM (active)
[4]
  IC50: 9.66 µM (active)
[5]
  EC50: > 53 µM (inactive)

## O=[N+]([O-])/C=C/c1cn(Cc2ccc(F)cc2)c2ccccc12
[6]
  AC50: 3.2 µM (active)
[7]
  IC50: 4.49 µM (active)
INS1
  AC50: 16.9 µM (active)
[8]
  EC50: 15.2 µM (active)
[9]
  EC50: 16.4 µM (active)
[10]
  AC50: 8.8 µM (active)

## O=C1NC(=S)S/C1=C\c1cc(Cl)ccc1Cl
[3]
  IC50: 9.52 µM (active)
[4]
  IC50: 2.87 µM (active)
[5]
  EC50: > 53 µM (inactive)

## C=C[C@]1(C)C[C@@H](OC(=O)CSCCN(CC)CC)[C@]2(C)[C@H](C)CC[C@]3(CCC(=O)[C@H]32)[C@@H](C)[C@@H]1O [TIAMULIN FUMARATE]
[7]
  IC50: 39.8 µM (inactive)
[11]
  EC50: > 60 µM (not active)
[12]
  EC50: < 0.06 µM (active)
[13]
  EC50: 1.75 µM (active)
Streptococcus
  EC50: < 0.06 µM (active)
